Structures can show the parent of a compound that is named as a salt.
Columns and labels:
[1] = test system: LI0574 HCC patient derived cells; assay: CellTiter-Glo growth inhibition, HCC patient-derived cells LI0574; type: cell-based, human; details: Homo sapiens; LI0574, 72 hours
Protocol: (§1) The patient derived Hepatocellular Carcinoma (HCC) cells were maintained in medium respectively described in table 15 containing 1% penicillin-streptomycin (Life Technologies, 15070-063), with a supplements for primary cell culture (PCS) containing hydrocortisone (50 nM), Epidermal Growth Factor (20 ng/ml), β-fibroblast Growth Factor (10 ng/ml), Heparin (2 μg/ml) ITS liquid media supplement (1×) and non-essential amino acid (NEAA, 0.01 mM, 1×). The primary cell were cultured in a humidified atmosphere (95% relative humidity) with 5% CO2 at 37° C.
(§2) The cell growth inhibition assay was performed as described previously in example 5 using the CellTiter-Glo® luminescent cell viability assay as described by the manufacturer (Promega, Ref G7571). The number of cells seeded per well (in 96-Well Flat Clear Bottom Black Polystyrene TC-Treated Microplates, Cat #3340, Corning®) is described in the table 16. A backseal black sticker (Cat #6005189, Perkin Elmer) was placed to the bottom of each plate before recording CellTiter-Glo® luminescence.
(§3) The experimental data are analyzed using a computer program, Graphpad Prism V 5.0 (GraphPad Software, Inc. La Jolla, Calif.) and EC50 values were determined as the dose of compound required to reduce absorbance values to 50% of the signal obtained for vehicle treated cell cultures and were a mean of at least three independent experiments.

[2] = test system: LI0612 HCC patient derived cells; assay: CellTiter-Glo growth inhibition, HCC patient-derived cells LI0612; type: cell-based, human; details: Homo sapiens; LI0612, 72 hours
Protocol: as §1, §2, §3

MV4-11 cell line = assay: CellTiter-Glo growth inhibition assay, MV4-11; type: cell-based; details: Homo sapiens; MV4-11, biphenotypic B myelomonocytic leukemia, 72 h
Protocol: (§4) All cell lines were maintained in medium containing 1% penicillin-streptomycin (Dutscher, P06-07100) and 10% Fetal Bovine Serum (Gibco, W3387L) except 20% for KG-1 cell line and PBMC, and cultured at 37° C. with 5% CO2.
KG-1 and MV4-11 cell line were maintained in Iscove's modified Dulbecco's medium (Dutscher, L0190).
(§5) Cell viability was measured using the CellTiter-Glo® luminescent cell viability assay as described by the manufacturer (Promega, Ref G7571) using an Infinite F200Pro luminometer (Tecan). Briefly, for adherent cells, cells were plated onto 96-well plates (white with clear bottom) in 90 μL of media per well and were allowed to grow overnight before the assay. For cells growing in suspension, cells were plated onto 96-well plates immediately before the assay.
(§6) Compounds were added at different concentrations to each well, and cell cultures were incubated for 72 h. Vehicle (H2O) was used as a control, and all compounds were tested in a constant percentage of H2O. After addition of 100 μL of CellTiter-Glo®, luminescence was measured using an Infinite F200Pro (Tecan). EC50 values were determined as the dose of compound required to reduce luminescent values to 50% of the signal obtained for untreated cell cultures. The experimental data were analyzed using a computer program, Graphpad Prism v5 (GraphPad Software, Inc. La Jolla, Calif.). […]

MOLM-14 cell line = assay: CellTiter-Glo cell viability / growth inhibition assay, MOLM-14 (Example 5); type: cell-based; details: Homo sapiens, 72 h
Protocol: as §4
MOLM-14 cell line was maintained in MEM alpha medium (Gibco, 22561-021).
as §5
(§7) Compounds were added at different concentrations to each well, and cell cultures were incubated for 72 h. Vehicle (H2O) was used as a control, and all compounds were tested in a constant percentage of H2O. After addition of 100 μL of CellTiter-Glo®, luminescence was measured using an Infinite F200Pro (Tecan). EC50 values were determined as the dose of compound required to reduce luminescent values to 50% of the signal obtained for untreated cell cultures. The experimental data were analyzed using a computer program, Graphpad Prism v5 (GraphPad Software, Inc. La Jolla, Calif.).
(§8) All experiments were at least done in duplicate and repeated two independent times.

[3] = test system: LI0801 HCC patient derived cells; assay: CellTiter-Glo growth inhibition, HCC patient-derived cells LI0801; type: cell-based, human; details: Homo sapiens; LI0801, 72 hours
Protocol: as §1, §2, §3

A375 cell line = assay: CellTiter-Glo growth inhibition assay, A375; type: cell-based; details: Homo sapiens, A-375; A375, malignant melanoma, 72 h
Protocol: as §4
HepG2, Huh7, HCT-116, MDA-MB-231 and A375 cell lines were cultured in Dulbecco's modified Eagle's medium (Dutscher, L0103).
as §5, §6

[4] = test system: CPP36 liver metastatic CRC patient-derived cells; assay: CellTiter-Glo growth inhibition, liver metastatic CRC patient-derived cells CPP36; type: cell-based; details: Homo sapiens; CPP36, 72 h
Description: Patient derived liver metastasis cells (CPP19, 30, 36 and CPP45—see table 1 for clinical descriptions) were maintained in complete DMEM (Gibco) with 10% FBS. Cells were obtained from biopsies provided by CHU-Caremeau (Nimes, France) within an approved protocol. Signed informed consents were obtained from patients prior to samples acquisition in accordance with all ethical and legal aspects. Tumors were washed, minced into fragments (<2 mm^3) and digested with liberase H (0.26 U/mL, Roche) resuspended in Accumax (Sigma-Aldrich). After 2 hours at 37° C., cell suspension was filtered through a […] to obtain a single cell suspension and plated in DMEM medium, supplemented with FBS, glutamine, antibiotics and non-essential aminoacids. When a monolayer of patient-derived tumor cells was formed, cells were detached using trypsin/EDTA and resuspended in DMEM with 10% FBS (for adherent cells) or defined M11 media (for sphere formation). Cells were cultured in a humidified atmosphere at 37° C. and 5% CO2.
Cells were plated at 10^4 cells per well in P96 well plates in DMEM with 10% FBS. After 24 hours, cells were treated with compound 2-3 and cell viability was assessed 72 h post-treatment by CellTiter-Glo® Luminescent Cell Viability Assay (Promega). EC50 were calculated using GraphPad Prism Software v6 (Graphpad Software, Inc La Jolla, Calif.). […]

[5] = test system: LI1098 HCC patient derived cells; assay: CellTiter-Glo growth inhibition, HCC patient-derived cells LI1098; type: cell-based, human; details: Homo sapiens; LI1098, 72 hours
Protocol: as §1, §2, §3

[6] = test system: LI0752 HCC patient derived cells; assay: CellTiter-Glo growth inhibition, HCC patient-derived cells LI0752; type: cell-based, human; details: Homo sapiens; LI0752, 72 hours
Protocol: as §1, §2, §3

[7] = test system: LI1646 HCC patient derived cells; assay: CellTiter-Glo growth inhibition, HCC patient-derived cells LI1646; type: cell-based, human; details: Homo sapiens; LI1646, 72 hours
Protocol: as §1, §2, §3

MRC-5 cell line = assay: CellTiter-Glo growth inhibition assay, MRC-5; type: cell-based; details: MRC5; MRC-5, human fetal lung fibroblast, 72 h
Protocol: as §4
MRC-5 cell line was maintained in MEM (Dutscher, L0416).
as §5, §7, §8

CC(C)(C)NC1CCN(c2cc(NCc3ccc(Cl)cc3)nc3ccccc23)CC1 [Compound 2-3, 2-(4-chlorobenzylamino)-4-(4-tert-butylaminopiperidin-1-yl)-quinoline hydrochloride salt]
EC50 [1]: 2400 nM | EC50 [2]: 6900 nM | EC50 (MV4-11 cell line): 2300 nM | viability at 4 µM (MOLM-14 cell line; MOLM-14, 4 μM): 31.8% | viability at 10 µM (MOLM-14 cell line; MOLM-14, 10 μM): 0.3% | EC50 (MOLM-14 cell line; MOLM-14, acute myeloïd leukemia, FLT3-ITD heterozygote+/−): 2200 nM | EC50 [3]: 2100 nM | EC50 (A375 cell line): 1000 nM | EC50 [4]: 1450 nM | EC50 [5]: 7000 nM | EC50 [6]: 500 nM | EC50 [7]: 1400 nM | EC50 (MRC-5 cell line): ~3400 nM
